# Assay results from ChEMBL document CHEMBL1157539, “Thousands of chemical starting points for antimalarial lead identification” (Nature, 2010).
# System: Plasmodium falciparum
# Test: GSK_TCMDC: Inhibition of Plasmodium falciparum 3D7 in whole erythrocytes, using parasite LDH activity as an index of growth.
# Type: functional, organism-based
# Conditions: Plasmodium falciparum, 3D7
row,SMILES,XC50 [nM]
1,CCOc1cc(Cc2cnc(N)nc2N)cc(OC)c1OC,913
2,Cc1ccc(NC(=O)C2CCC2)cc1-c1ccc(C(=O)NCC2CC2)cc1,742
3,COc1ccccc1C1CCN(C2CCC(NC(=O)/C=C/c3ccc(F)c(F)c3)CC2)CC1 (stereo unspecified),1320
4,COc1ccc(C(=O)CCC(=O)N(Cc2ccc(-c3ccc(CNCc4cccnc4)cn3)cc2)C2CCN(Cc3ccccc3)CC2)cc1F,978
5,O=C(Nc1ccc2c(c1)CCN2C1CCN(Cc2csc3ccccc23)C1)c1ccco1 (stereo unspecified),322
6,CC(C)CCN1CCC(Oc2ccc(NC(=O)c3cccs3)cc2Cl)CC1,341
7,c1ccc2cc(CNCCCN3CCN(CCCNCc4ccc5ccccc5c4)CC3)ccc2c1,545
8,c1cc(CNCC2CCCO2)cc(-c2cccc(-c3nc4ccccc4[nH]3)c2)c1 (stereo unspecified),859
9,O=C(NC1CCC(N2CCN(c3cccc4[nH]ccc34)CC2)CC1)c1cc2cccnc2[nH]1 (stereo unspecified),492
10,O=C(Nc1ccc(Cl)c(Cl)c1)N1CCC(NCc2cccc([N+](=O)[O-])c2)CC1,763
11,COc1ccc2c(=O)c(I)c(C)[nH]c2c1,440
12,CCCc1ccc(Cc2cnc3nc(N)nc(N)c3c2C)cc1,283
13,O=C(Nc1cccc(-c2cccc(-c3nc4ccccc4[nH]3)c2)c1)c1ccoc1,741
14,NC1CCN(Cc2ccc(-c3ccc(-c4nc5ccccc5[nH]4)cc3)cc2)C1 (stereo unspecified),147
15,CCCC(=O)Nc1ccc(OCCCN(Cc2cccc(C(F)(F)F)c2)c2ccc(C#N)c(C(F)(F)F)c2)cc1,1090
16,O=[N+]([O-])c1c(O)nc2c(c1O)CCC2,1050
17,OCC1CCN(Cc2cccc(C#Cc3cc4ncnc(Nc5ccc(OCc6cccc(F)c6)c(Cl)c5)c4s3)n2)CC1,552
18,O=C(Nc1ccc(Cl)cc1)c1ccc(CN2CCCN(Cc3cccc(Cl)c3)CC2)cc1,826
19,CCCSc1nc2c(c(=O)n1CCc1ccccc1)C1(CCCC1)Cc1ccccc1-2,702
20,COc1ccccc1C1CCN(C2CCC(NC(=O)/C=C/c3cccc(Cl)c3F)CC2)CC1 (stereo unspecified),1290
21,Cc1[nH]c(C)c(-c2ccc(-c3ccccc3F)nc2)c(=O)c1Cl,250
22,Nc1nc(N)c2c(ccc3c2ccn3Cc2cccc3ccccc23)n1,3.2
23,O=C(NC1CCC(N2CCC3(CC2)C(=O)NCN3c2ccccc2)CC1)c1cc2ccccc2[nH]1 (stereo unspecified),679
24,Cc1cc2cc(/C=C/C(=O)NC3CCC(CCN4CCc5ccc(C#N)cc5CC4)CC3)ccc2[nH]1 (stereo unspecified),880

row,SMILES,XC50 [nM]
1,CC1CCc2c(C(=O)Nc3c(F)cc(F)cc3Br)csc2C1 (stereo unspecified),752
2,CCc1cc(NCc2ccncc2)nc(Nc2ccc(F)cc2)n1,1330
3,CCCN1CCC2(CC1)NC(C(=O)NCCC(C)C)Cc1c2[nH]c2cc(Cl)ccc12 (stereo unspecified),1380
4,O=S(=O)(Nc1cccc(CCN2CCC(N3CCCCC3)CC2)c1)c1ccc(Oc2ccccc2)nc1,928
5,Cc1cc(C(=O)Nc2ccc(C)c(-c3nc(N(C(=O)c4ccc(F)c(C)c4)C4CCNCC4)nc4c3ccc(=O)n4-c3c(F)cccc3F)c2)ccc1F,319
6,Cc1ccccc1C1CCN(C2CCC(NC(=O)/C=C/c3ccc(C(F)(F)F)cc3)CC2)CC1 (stereo unspecified),1040
7,COc1ccc(C[C@H](N)C(=O)N[C@H]2[C@@H](O)[C@H](n3cnc4c(N(C)C)ncnc43)O[C@@H]2CO)cc1,299
8,CCCNCc1ccc(-c2ccc(CN(Cc3cnc(C)cn3)C(=O)c3nn(-c4ccccc4)nc3C)cc2)nc1,419
9,CCCCCN1CCCN(Cc2cccc(NC(=O)c3ccc(-c4ccccc4)cc3)c2)CC1,697
10,O=S(=O)(Nc1cccc(CCN2CCC(N3CCCCC3)CC2)c1)c1cccc(C(F)(F)F)c1,976
11,Cc1cccc2nc(-c3cccc(-c4cccc(C(=O)NCCc5cn(C)cn5)c4)c3)[nH]c12,588
12,CN(C(=O)c1nn(-c2ccccn2)c2nccc(-c3cccs3)c12)C1CCCCC1,1240
13,Cc1[nH]c(C)c(-c2ccc(-c3cccc(OC(F)(F)F)c3)nc2)c(=O)c1Cl,74.5
14,COCc1nc(-c2ccccc2)nc(N2CCN(C(=O)NC(C)C)CC2)c1Cc1ccccc1F,1000
15,CCN(CCCN1CCCCC1)c1cc(C)nc(Nc2cc(C)ccc2C)n1,664
16,O=S(=O)(c1ccccc1C(F)(F)F)C1CC2CCC(C1)N2S(=O)(=O)c1ccc(Cl)c(C(F)(F)F)c1 (stereo unspecified),706
17,CN(C)CCOc1ccc(NC(=O)Nc2ccnc3c(Br)cccc23)cc1Cl,842
18,Cc1ccc(-n2cc(CNCCCn3ccnc3)c(-c3cccc(C)c3)n2)cc1,773
19,Cc1c(C(=O)NC2CCC(CN3CCC(c4c[nH]c5ccccc45)CC3)CC2)cnn1-c1c(Cl)cc(Cl)cc1Cl (stereo unspecified),711
20,NS(=O)(=O)c1cccc(-c2ccc3nccc(-c4cccc(S(N)(=O)=O)c4)c3c2)c1,1270
21,CN1C(C)(C)CC(NC(=O)c2ccc(-c3nc4cc(Cl)ccc4[nH]3)cc2)CC1(C)C,991
22,COc1ccc(Nc2nccc(-c3ccc4ccnc(NCCCCN)c4c3)n2)cc1,750
23,CCCCCCN1CCCN(Cc2ccc(C(=O)Nc3ccc(Cl)cc3)cc2)CC1,1210
24,COc1ccc(NS(=O)(=O)c2cc(NC(=O)Cn3ccccc3=O)ccc2N2CCCCC2)cc1,695

row,SMILES,XC50 [nM]
1,O=S(=O)(Nc1cccc(CCN2CCC(N3CCCCC3)CC2)c1)c1ccc2c(c1)OCCO2,1230
2,COc1cc(NC(=O)/C=C/c2ccccc2OC(F)(F)F)cc(OCCN2CCCCC2)c1,190
3,Cc1ccc(C2CCN(CCCCNC(=O)c3ccc(-c4ccc(C(F)(F)F)cc4)cc3)CC2)c(O)c1,128
4,CC(=O)Nc1cccc(C(=O)Nc2nc3ccc(-c4cc(=O)[nH]c(Nc5ccccc5Cl)n4)cc3[nH]2)c1,689
5,CN(C)c1cccc2c1nc(-c1ccco1)n2CC1CCCN1 (stereo unspecified),970
6,Nc1ccc(-c2cnc3[nH]cc(-c4ccc(C(=O)O)cc4)c3c2)cn1,964
7,O=C(/C=C/c1ccc(Cl)c(Cl)c1)N1CCC(CN2CCC(c3c(Br)[nH]c4ccccc34)CC2)CC1,289
8,CCOC(=O)CC[C@H](NC(=O)c1ccc(NS(=O)(=O)c2ccc(-c3cnc(N)[nH]c3=O)cc2)cc1)C(=O)OCC,174
9,Cc1cc(NCCC(=O)NCCOc2ccccc2)nc(NCCc2ccccc2)n1,1230
10,CCn1c(Sc2ccc([N+](=O)[O-])c(C#N)c2)nnc1-c1cccc(Cl)c1,873
11,CCOC(=O)c1ccc(NC(=O)Nc2cccc(-c3cccc(-c4nc5ccccc5[nH]4)c3)c2)cc1,68.7
12,O=C(/C=C/c1ccc(Cl)c(Cl)c1)Nc1cccc(CN2CCC(c3c[nH]c4ccc(O)cc34)CC2)c1,945
13,c1ccc(Oc2ccc(Nc3ccnc4cc(-c5ccc(CNCCN6CCOCC6)o5)ccc34)cc2)nc1,1440
14,O=C(CCN1CCCCC1)Nc1ccc(Nc2nccc(NCC(O)c3ccccc3)n2)cc1 (stereo unspecified),721
15,Cc1ccccc1C1CCN(C2CCC(NC(=O)c3ccc(-c4cccs4)s3)CC2)CC1 (stereo unspecified),1030
16,CC(C)C1C(O)=C(c2ccc3ccccc3c2)C(=O)N1CC1CCCCC1 (stereo unspecified),1130
17,c1ccc(-c2csc(Nc3nc4cc5c(cc4s3)OCO5)n2)nc1,579
18,CCOc1ccc(Br)cc1/C=C/C(=O)Nc1ccc2c(c1)C1CCC2N1C (stereo unspecified),1050
19,O=C(Nc1ccsc1)Nc1cccc(-c2ccc(-c3nc4cc(C(F)(F)F)ccc4[nH]3)cc2)c1,351
20,O=C(NCc1ccccc1)c1nn(CCCN2CCC(N3CCCC3)CC2)cc1-c1ccc(Cl)c(Cl)c1,675
21,O=S(=O)(Nc1ccc2nccc(N3CCNCC3)c2c1)c1ccc2oc3ccccc3c2c1,695
22,CN1CCN(S(=O)(=O)c2cccc(Nc3nccc(N(C)c4ccc5c(c4)nc(NC(=O)c4cccs4)n5C)n3)c2)CC1,746
23,CC(C)CCn1c(Sc2ccc(C#N)c([N+](=O)[O-])c2)nnc1-c1cccc(Cl)c1,673
24,O=C(NC1CCCCC1)c1csc(C2CCCN(C(=O)c3ccc(O)c(-c4cccc(C(F)(F)F)c4)c3)C2)n1 (stereo unspecified),1670

row,SMILES,XC50 [nM]
1,COc1cc(-c2cnc(N)c(-c3nc4ccccc4[nH]3)c2)cc(OC)c1OC,191
2,CCn1c(-c2nonc2N)nc2c(-c3cccc(NC(=O)Nc4ccc(Cl)cc4)c3)ncc(OCCCN)c21,828
3,CC(C)(C)Oc1ccc(C[C@@H]2NC3(C(=O)N(Cc4ccc(Cl)c(Cl)c4)c4ccccc43)C3C(=O)N(c4ccc(Br)cc4)C(=O)C32)cc1 (stereo partly specified),1040
4,NC(=O)C1CCN(Cc2ccc(-c3cccc(-c4nc5cc(F)ccc5[nH]4)c3)cc2)CC1,879
5,O=C(c1cccs1)N1N=C(c2cccs2)CC1c1cccc([N+](=O)[O-])c1 (stereo unspecified),820
6,COC1CCC(C(=O)Nc2ccc(-c3cccc(-c4nc5cc(C(F)(F)F)ccc5[nH]4)c3)cc2)CC1 (stereo unspecified),547
7,COc1ccccc1-c1[nH]c2ccccc2c1CN1CCC(c2c(C)cccc2C)CC1,918
8,Cc1nn(-c2cccc(Cl)c2)c2c1C(C(=O)c1ccc3c(c1)OCO3)CC(=O)N2 (stereo unspecified),371
9,Cc1cc(C(=O)CN2C(=O)NC3(CCCc4ccccc43)C2=O)c(C)n1Cc1ccc(F)cc1 (stereo unspecified),970
10,Cc1nnc(NC(=O)c2cn(-c3ccccc3)nc2-c2ccccc2C)o1,565
11,O=C(Nc1cccc(-c2ccc(-c3nc4ccccc4[nH]3)cc2)c1)c1ccncc1,529
12,COc1ccc2ncc(F)c(CCN3CC[C@H](NCc4cc5c(s4)CCCN5)[C@H](O)C3)c2n1,962
13,CC1CN(c2cnn(Cc3ccc(NC(=O)Nc4ccc(F)cc4[N+](=O)[O-])cc3)c(=O)c2Cl)CC(C)N1 (stereo unspecified),808
14,CNCCCNc1ccnc2cc(Cl)ccc12,62.4
15,CC(C)c1ccc(OCC(O)CN(CCN2CCOCC2)C(=O)Nc2ccc(Br)cc2)cc1 (stereo unspecified),717
16,COc1ccc2sc(CNCCCNc3cc(=O)c4ccccc4[nH]3)c(Cl)c2c1,1070
17,CCCCC(CC)CN1C(=O)C(c2ccccc2)(c2ccccc2)N=C1N (stereo unspecified),189
18,O=C(Nc1cccc(CN2CCCN(Cc3ncc[nH]3)CC2)c1)c1ccc(Cl)c(Cl)c1,795
19,FC(F)(F)c1ccc(CNC2CCN(CC3CCCCC3)CC2)cc1,933
20,Cc1ccc2[nH]c(-c3ccc(C=CC(=O)NC4CCN(Cc5ccccc5)CC4)cc3)nc2c1,684
21,CC(C)NCc1cccc(-c2ccc(NS(=O)(=O)c3cccc4cccnc34)cc2)c1,1080
22,COc1ccc(CNCc2ccc(-c3cccc(-c4nc5cc(C(F)(F)F)ccc5[nH]4)c3)cc2)cc1,151
23,CCN(CC)CCCNc1nccc(N(C)c2ccc(NC(=O)Nc3cc(C(F)(F)F)ccc3F)cc2)n1,1050
24,NCCNc1ccnc2cc(Cl)ccc12,125
